Drawing on article PMC9146161, “Novel Thienyl-Based Tyrosine Kinase Inhibitors for the Treatment of Hepatocellular Carcinoma” (Journal of Personalized Medicine, 2022), this text covers IC50 for one compound.

The assay addresses T1, VEGFR-2 (Homo sapiens, UniProt P35968).
T1 construct: gene KDR
Put plainly: cell-free enzymatic kinase assay (Eurofins KinaseProfiler), dose-response […]. The format is biochemical.

T1 sequence (P35968 20-1356): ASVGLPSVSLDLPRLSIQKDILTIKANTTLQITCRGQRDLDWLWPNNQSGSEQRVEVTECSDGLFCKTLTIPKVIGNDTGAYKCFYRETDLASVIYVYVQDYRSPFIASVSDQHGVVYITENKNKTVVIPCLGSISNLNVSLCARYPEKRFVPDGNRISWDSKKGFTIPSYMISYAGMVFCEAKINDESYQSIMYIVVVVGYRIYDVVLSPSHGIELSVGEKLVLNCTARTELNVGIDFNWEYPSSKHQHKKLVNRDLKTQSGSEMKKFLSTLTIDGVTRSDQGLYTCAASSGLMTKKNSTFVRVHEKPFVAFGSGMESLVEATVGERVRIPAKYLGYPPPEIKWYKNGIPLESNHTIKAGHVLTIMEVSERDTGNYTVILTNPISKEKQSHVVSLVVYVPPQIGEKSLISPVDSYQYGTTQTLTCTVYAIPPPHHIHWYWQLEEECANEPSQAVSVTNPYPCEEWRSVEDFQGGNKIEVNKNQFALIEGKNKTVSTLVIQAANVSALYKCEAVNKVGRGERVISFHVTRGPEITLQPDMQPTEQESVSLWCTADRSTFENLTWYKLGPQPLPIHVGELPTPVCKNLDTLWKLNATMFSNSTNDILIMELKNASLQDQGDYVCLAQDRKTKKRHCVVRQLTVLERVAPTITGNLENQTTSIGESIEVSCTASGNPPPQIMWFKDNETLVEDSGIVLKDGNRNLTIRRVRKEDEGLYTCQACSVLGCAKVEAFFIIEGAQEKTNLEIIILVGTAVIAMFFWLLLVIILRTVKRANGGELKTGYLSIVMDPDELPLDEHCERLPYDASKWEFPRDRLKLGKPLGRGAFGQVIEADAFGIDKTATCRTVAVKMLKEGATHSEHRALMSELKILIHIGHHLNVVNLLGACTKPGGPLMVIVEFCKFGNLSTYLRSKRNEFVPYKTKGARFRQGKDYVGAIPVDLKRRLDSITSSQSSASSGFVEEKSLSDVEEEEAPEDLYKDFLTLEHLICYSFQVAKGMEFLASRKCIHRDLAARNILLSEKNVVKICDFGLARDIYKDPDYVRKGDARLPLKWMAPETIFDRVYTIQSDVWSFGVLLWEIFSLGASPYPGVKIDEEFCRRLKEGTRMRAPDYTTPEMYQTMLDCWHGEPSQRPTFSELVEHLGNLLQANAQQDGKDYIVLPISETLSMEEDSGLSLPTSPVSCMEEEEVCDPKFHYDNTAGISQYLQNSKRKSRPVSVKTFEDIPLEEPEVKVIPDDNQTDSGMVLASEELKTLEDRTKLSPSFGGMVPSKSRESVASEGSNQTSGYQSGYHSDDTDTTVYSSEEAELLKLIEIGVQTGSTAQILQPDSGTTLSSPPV

The compound `COc1ccc(/C=C(\C#N)c2cccs2)cc1O` [Thio-Iva] registered an IC50 of 3.31 µM.
